pIC50: −log10 of the molar value.
Key:
MKN-28 = assay: AlamarBlue cell viability assay, MKN-28; assay type: cell-based; settings: Homo sapiens, Gastric
Experimental: (§1) The human immortalized mammary epithelial cell lines, MCF10A, and MCF12A; and immortalized hepatocellular epithelial cell line, LO2 were obtained from the American Type Culture Collection (ATCC, Rockville, Md.) and were cultured as per ATCC propagation instructions. MC cell lines, MCF7, T47D, BT474, BT20, MDA-MB-361, MDA-MB-436, MDA-MB-468, and MDA-MB-231; endometrial carcinoma cell lines, Ishikawa, ECC1, RL95-2 and AN3; hepatocellular carcinoma cell lines, Hep3B, H2P, and H2M; colon carcinoma cell lines, DLD-1, and Caco-2; and prostate carcinoma cell lines, PC3, LNCaP, and DU145 were obtained from the American Type Culture Collection (ATCC, Rockville, Md.). Pancreatic carcinoma cell lines, AsPC-1 and BxPC-3; Lung carcinoma cell lines, HCC-827, NCI-H1975, HCC-4006, PC-14, and NCI-H1299; and Thyroid carcinoma cell lines HTH83, CAL62, T238, and OGK-M were obtained from Prof. H. Phillip Koeffler's laboratory at The Cancer Science Institute of Singapore, National University of Singapore (NUS). Gastric carcinoma cell lines, AGS, MKN-28, MKN-45, and A2-528 were obtained from Prof. […]
(§2) In table 9 IC50 values of compound 43 compound library in several cancer cell lines are tabulated, using an AlamarBlue® cell viability assay as previously described in Pandey V et al., Breast Cancer Res. 2014; 16(5):429. Statistical analysis was assessed by using GraphPad Prism5. […]

MCF7 = assay: qPCR analysis of mRNA levels of genes associated with oncogenic progression, MCF7; assay type: cell-based, human; settings: MCF7, 10 μM
Experimental: Total RNA was isolated from cells using TRIzol Plus RNA Purification system as previously described in Pandey V et al., Endocrinology. 2010; 151(3):909-920. qPCR assays were performed as previously described in Pandey V et al., Endocrinology. 2010; 151(3):909-920; and Pandey V et al., Endocrinology. 2008; 149(8):3909-3919. Gene expression analysis was performed as previously described in Pandey V et al., Endocrinology. 2010; 151(3):909-920; and Pandey V et al., Endocrinology. 2008; 149(8):3909-3919.

[1] = test system: TFF3-high expressing mammary carcinoma cell (MCF7, BT474, MDA-MB-361); assay: Cell viability in 3D Matrigel culture, AlamarBlue (FIG. 4); assay type: cell-based, human; settings: cultured 14 days in 3D Matrigel, vs vehicle (DMSO)
Experimental: Cell viability in colonies generated by MCF7, BT474 and MDA-MB-361 cell after exposure with compound 43 or vehicle (DMSO) cultured 14 days in 3D Matrigel using AlamarBlue™ viability assay as previously described in Pandey V et al., Breast Cancer Res. 2014; 16(5):429. Microscopic visualization (right side) of colonies generated by BT474 and MCF7 cells after exposure with compound 43 or vehicle (DMSO) cultured 14 days in 3D Matrigel. On days 5, 8 and 11, colonies were treated with compound 43 or DMSO. Statistical significance was assessed by using an unpaired two-tailed Student's t test (P<0.05 was considered as significant) using GraphPad Prism5.

BT20 = assay: AlamarBlue cell viability assay, BT20; assay type: cell-based; settings: Homo sapiens, BT-20, Mammary
Description: (§3) (A) Inhibitory concentration 50% (IC50) values for compound 43 in the MC cell lines are tabulated, using an AlamarBlue™ cell viability assay as previously described in Pandey V et al., Breast Cancer Res. 2014; 16(5):429. (B) Measured dose-dependent manner effect of compound 43 on the viability of MC cells (left-side, TFF3-high and right, TFF3-low) using AlamarBlue™ viability assay as previously described (ibid). (C) Apoptotic cell death of mammary carcinoma cell lines measured after treatment with 10 μM compound 43 using flow cytometry analysis at 24 hour as described previously in Keerthy H K et al., PloS one. 2014; 9(9):e107118. Annexin V-FITC staining is indicated on the X-axis and PI staining on the Y-axis. […] Acquisition of Annexin V and PI data were represented as percentage (%) in each quadrant. Note: CM, conditioned media; MCF10A and MCF12A, non-transformed immortalized-mammary epithelial cell line. Points are mean of triplicate experiments; bars, ±SD. Statistical significance was assessed by using an unpaired two-tailed Student's t test (P<0.05 was considered as significant) using GraphPad Prism5. […]
as §2

RL95-2 = assay: AlamarBlue cell viability assay, RL95-2; assay type: cell-based; settings: Homo sapiens, Endometrial
Experimental: as §1, §2

BT474 = assay: AlamarBlue cell viability assay, BT474; assay type: cell-based; settings: Homo sapiens, BT-474, Mammary
Description: as §3, §2

DU145 = assay: AlamarBlue cell viability assay, DU145; assay type: cell-based; settings: Homo sapiens, DU-145, Prostate
Experimental: as §1, §2

Ishikawa = assay: AlamarBlue cell viability assay, Ishikawa; assay type: cell-based; settings: Homo sapiens, Endometrial
Experimental: as §1, §2

AGS = assay: AlamarBlue cell viability assay, AGS; assay type: cell-based; settings: Homo sapiens, Gastric
Experimental: as §1, §2

Hep3B = assay: AlamarBlue cell viability assay, Hep3B; assay type: cell-based; settings: Homo sapiens, Hepatocellular
Experimental: as §1, §2

DLD-1 = assay: AlamarBlue cell viability assay, DLD-1; assay type: cell-based; settings: Homo sapiens, Colon
Experimental: as §1, §2

H1975 = assay: AlamarBlue cell viability assay, H1975; assay type: cell-based; settings: Homo sapiens, NCI-H1975, Lung
Experimental: as §1, §2

With Cc1cc(-c2ccc(C3C(C#N)=C(N)Oc4c3c(=O)oc3ccccc43)cc2)cnc1F (stereo not drawn) [Compound 43, 2-Amino-4-(4-(6-fluoro-5-methylpyridin-3-yl)phenyl)-5-oxo-4H,5H-pyrano[3,2-c]chromene-3-carbonitrile] the pIC50 (MKN-28) was 4.07, the “APAF1 mRNA, Fold change relative to vehicle control” value (MCF7) was 0.94 fold and the “ATM mRNA, Fold change relative to vehicle control” value (MCF7) was 0.32 fold. For the same compound, the “BAD mRNA, Fold change relative to vehicle control” value (MCF7) was 0.09 fold, the “BAK1 mRNA, Fold change relative to vehicle control” value (MCF7) was 2.09 fold and the “BAX mRNA, Fold change relative to vehicle control” value (MCF7) was 18.54 fold. For the same compound, the “BCL2L1 mRNA, Fold change relative to vehicle control” value (MCF7) was 0.04 fold, the “BCL2 mRNA, Fold change relative to vehicle control” value (MCF7) was 0.06 fold and the “BCLAF1 mRNA, Fold change relative to vehicle control” value (MCF7) was 0.87 fold. For the same compound, the “BRCA1 mRNA, Fold change relative to vehicle control” value (MCF7) was 2.00 fold, the “CASP7 mRNA, Fold change relative to vehicle control” value (MCF7) was 30.71 fold and the “CCND1 mRNA, Fold change relative to vehicle control” value (MCF7) was 0.01 fold. The “CDC25A mRNA, Fold change relative to vehicle control” value (MCF7) was 0.49 fold, the “CDK2 mRNA, Fold change relative to vehicle control” value (MCF7) was 0.15 fold and the “CDK4 mRNA, Fold change relative to vehicle control” value (MCF7) was 0.18 fold. The “CDKN1A mRNA, Fold change relative to vehicle control” value (MCF7) was 114.92 fold, the “CDKN1B mRNA, Fold change relative to vehicle control” value (MCF7) was 11.08 fold and the “CDKN2A mRNA, Fold change relative to vehicle control” value (MCF7) was 5.45 fold. The “CFLAR mRNA, Fold change relative to vehicle control” value (MCF7) was 0.02 fold, the “CHEK2 mRNA, Fold change relative to vehicle control” value (MCF7) was 1.14 fold and the “Cyclin E1 mRNA, Fold change relative to vehicle control” value (MCF7) was 0.01 fold. For the same compound, the “E2F1 mRNA, Fold change relative to vehicle control” value (MCF7) was 1.80 fold, the “GZMA mRNA, Fold change relative to vehicle control” value (MCF7) was 0.93 fold and the “HTATIP2 mRNA, Fold change relative to vehicle control” value (MCF7) was 2.87 fold. The “MDM2 mRNA, Fold change relative to vehicle control” value (MCF7) was 6.62 fold, the “RB1 mRNA, Fold change relative to vehicle control” value (MCF7) was 1.00 fold and the “S100A4 mRNA, Fold change relative to vehicle control” value (MCF7) was 1.49 fold. The “TERT mRNA, Fold change relative to vehicle control” value (MCF7) was 0.11 fold, the “TNFRSF1A mRNA, Fold change relative to vehicle control” value (MCF7) was 1.15 fold and the “TNFRSF10B mRNA, Fold change relative to vehicle control” value (MCF7) was 1.05 fold. The “TNFRSF25 mRNA, Fold change relative to vehicle control” value (MCF7) was 1.41 fold, the “TP53 mRNA, Fold change relative to vehicle control” value (MCF7) was 282.98 fold and the “cell viability in Matrigel 3D culture” value [1] was “suppresses cell viability”. For the same compound, the pIC50 (BT20) was 3.33, the pIC50 (RL95-2) was 4.04 and the pIC50 (BT474) was 5.57. It also gave a pIC50 (DU145) of 5.72, a pIC50 (Ishikawa) of 6.03 and a pIC50 (AGS) of 5.51. The pIC50 (Hep3B) was 5.07, the pIC50 (DLD-1) was 5.39 and the pIC50 (H1975) was 4.93.

Source: patent US20200147039A1, “COMPOUNDS USEFUL IN INHIBITING HUMAN TREFOIL FACTOR 3” (NATIONAL UNIVERSITY OF SINGAPORE, priority 2017, published 2020)
